Values quoted from earlier work in US20220000833A1, “COMPOSITIONS AND METHODS FOR TREATING O[…] APNEA” (THERAPIX BIOSCIENCES LTD., priority 2018, published 2022).

Experiments:
patients = details: more than 40 years of clinical research, around 6000 patients, 300-1200 mg a day up to two months

Row | Structure (SMILES) | hypothesized lethal dose in humans (humans; based on rat studies) | dose at which serious Dronabinol-associated adverse events in humans have been reported (humans; humans) | estimated lethal dose in humans (humans; intravenous) | safety / side effects in clinical research (patients)
1 | CCCCCc1cc(O)c2c(c1)OC(C)(C)[C@@H]1CCC(C)=C[C@@H]21 [Dronabinol, (−)-Trans-Δ9-tetrahydrocannabinol] | 30 mg/kg | 0.4 mg/kg | 30 mg/kg | 
2 | CCCCCCCCCCCCCCCC(=O)NCCO [PEA, N-(2-hydroxyethyl)hexadecanamide] |  |  |  | no side effects has ever been reported
